Experimental data as given in ChEMBL document CHEMBL4507275, “Data for DCP probe BI-2545” (2021).

Columns and labels:
[1] = test system: Tyrosine-protein kinase ABL1 (Homo sapiens), P00519 [F317I]; conditions: Compound concentration 1000.0 nM
[2] = test system: Tyrosine-protein kinase ABL1 (Homo sapiens), P00519 [Q252H]; conditions: Compound concentration 1000.0 nM
[3] = target: Activin receptor type-2B (Homo sapiens) (UniProt Q13705); conditions: Compound concentration 1000.0 nM
[4] = target: RAC-beta serine/threonine-protein kinase (Homo sapiens) (UniProt P31751); conditions: Compound concentration 1000.0 nM
[5] = target: Bone morphogenetic protein receptor type-2 (Homo sapiens) (UniProt Q13873); conditions: Compound concentration 1000.0 nM
[6] = test system: Serine/threonine-protein kinase B-raf (Homo sapiens), P15056 [V600E]; conditions: Compound concentration 1000.0 nM
[7] = target: Cyclin-dependent kinase 9 (Homo sapiens) (UniProt P50750); conditions: Compound concentration 1000.0 nM
[8] = target: Citron Rho-interacting kinase (Homo sapiens) (UniProt O14578); conditions: Compound concentration 1000.0 nM
[9] = target: Dual specificity protein kinase CLK2 (Homo sapiens) (UniProt P49760); conditions: Compound concentration 1000.0 nM
[10] = target: Dual specificity protein kinase CLK3 (Homo sapiens) (UniProt P49761); conditions: Compound concentration 1000.0 nM
[11] = target: Dual specificity protein kinase CLK4 (Homo sapiens) (UniProt Q9HAZ1); conditions: Compound concentration 1000.0 nM
[12] = target: Megakaryocyte-associated tyrosine-protein kinase (Homo sapiens) (UniProt P42679); conditions: Compound concentration 1000.0 nM
[13] = target: Serine/threonine-protein kinase DCLK3 (Homo sapiens) (UniProt Q9C098); conditions: Compound concentration 1000.0 nM
[14] = target: Ephrin type-B receptor 4 (Homo sapiens) (UniProt P54760); conditions: Compound concentration 1000.0 nM
[15] = target: Tyrosine-protein kinase Fgr (Homo sapiens) (UniProt P09769); conditions: Compound concentration 1000.0 nM
[16] = test system: Receptor-type tyrosine-protein kinase FLT3 (Homo sapiens), P36888 [N841I]; conditions: Compound concentration 1000.0 nM
[17] = target: Tyrosine-protein kinase HCK (Homo sapiens) (UniProt P08631); conditions: Compound concentration 1000.0 nM
[18] = target: Homeodomain-interacting protein kinase 3 (Homo sapiens) (UniProt Q9H422); conditions: Compound concentration 1000.0 nM
[19] = target: Mitogen-activated protein kinase kinase kinase kinase 1 (Homo sapiens) (UniProt Q92918); conditions: Compound concentration 1000.0 nM
[20] = target: Insulin-like growth factor 1 receptor (Homo sapiens) (UniProt P08069); conditions: Compound concentration 1000.0 nM
[21] = target: Inhibitor of nuclear factor kappa-B kinase subunit beta (Homo sapiens) (UniProt O14920); conditions: Compound concentration 1000.0 nM
[22] = target: Mast/stem cell growth factor receptor Kit (Homo sapiens) (UniProt P10721); conditions: Compound concentration 1000.0 nM
[23] = target: Mitogen-activated protein kinase kinase kinase 3 (Homo sapiens) (UniProt Q99759); conditions: Compound concentration 1000.0 nM
[24] = target: Serine/threonine-protein kinase MARK1 (Homo sapiens) (UniProt Q9P0L2); conditions: Compound concentration 1000.0 nM
[25] = target: Serine/threonine-protein kinase MARK2 (Homo sapiens) (UniProt Q7KZI7); conditions: Compound concentration 1000.0 nM
[26] = target: Serine/threonine-protein kinase MRCK alpha (Homo sapiens) (UniProt Q5VT25); conditions: Compound concentration 1000.0 nM
[27] = target: Serine/threonine-protein kinase 4 (Homo sapiens) (UniProt Q13043); conditions: Compound concentration 1000.0 nM
[28] = target: Serine/threonine-protein kinase NLK (Homo sapiens) (UniProt Q9UBE8); conditions: Compound concentration 1000.0 nM
[29] = target: Serine/threonine-protein kinase PAK 1 (Homo sapiens) (UniProt Q13153); conditions: Compound concentration 1000.0 nM
[30] = target: Receptor-interacting serine/threonine-protein kinase 1 (Homo sapiens) (UniProt Q13546); conditions: Compound concentration 1000.0 nM
[31] = target: Dual serine/threonine and tyrosine protein kinase (Homo sapiens) (UniProt Q6XUX3); conditions: Compound concentration 1000.0 nM
[32] = target: SRSF protein kinase 3 (Homo sapiens) (UniProt Q9UPE1); conditions: Compound concentration 1000.0 nM
[33] = target: Serine/threonine-protein kinase TBK1 (Homo sapiens) (UniProt Q9UHD2); conditions: Compound concentration 1000.0 nM
[34] = target: High affinity nerve growth factor receptor (Homo sapiens) (UniProt P04629); conditions: Compound concentration 1000.0 nM
[35] = target: Serine/threonine-protein kinase VRK2 (Homo sapiens) (UniProt Q86Y07); conditions: Compound concentration 1000.0 nM
[36] = target: 5-hydroxytryptamine receptor 1B (Homo sapiens) (UniProt P28222); conditions: Compound concentration 10.0 uM
[37] = target: Beta-1 adrenergic receptor (Homo sapiens) (UniProt P08588); conditions: Compound concentration 10.0 uM
[38] = target: T1, Muscarinic acetylcholine receptor M2 (Homo sapiens) (UniProt P08172); conditions: Compound concentration 10.0 uM
T1 sequence (whole entry): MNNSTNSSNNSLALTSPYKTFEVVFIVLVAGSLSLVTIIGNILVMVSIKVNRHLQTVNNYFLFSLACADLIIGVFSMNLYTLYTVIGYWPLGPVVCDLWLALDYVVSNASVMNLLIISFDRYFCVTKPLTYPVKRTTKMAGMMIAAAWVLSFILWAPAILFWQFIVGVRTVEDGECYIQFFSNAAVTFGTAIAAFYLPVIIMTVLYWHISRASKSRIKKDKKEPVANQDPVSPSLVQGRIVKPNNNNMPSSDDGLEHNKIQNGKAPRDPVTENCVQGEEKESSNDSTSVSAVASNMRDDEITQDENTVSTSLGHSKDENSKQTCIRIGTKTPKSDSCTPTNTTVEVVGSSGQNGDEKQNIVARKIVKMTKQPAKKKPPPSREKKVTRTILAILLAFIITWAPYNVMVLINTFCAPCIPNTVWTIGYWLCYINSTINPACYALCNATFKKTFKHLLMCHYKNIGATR

[39] = target: Sigma intracellular receptor 2 (Homo sapiens) (UniProt Q5BJF2); conditions: Compound concentration 10.0 uM

Chain of Dual specificity protein kinase CLK3 (Homo sapiens) (P49761 whole entry, looked up): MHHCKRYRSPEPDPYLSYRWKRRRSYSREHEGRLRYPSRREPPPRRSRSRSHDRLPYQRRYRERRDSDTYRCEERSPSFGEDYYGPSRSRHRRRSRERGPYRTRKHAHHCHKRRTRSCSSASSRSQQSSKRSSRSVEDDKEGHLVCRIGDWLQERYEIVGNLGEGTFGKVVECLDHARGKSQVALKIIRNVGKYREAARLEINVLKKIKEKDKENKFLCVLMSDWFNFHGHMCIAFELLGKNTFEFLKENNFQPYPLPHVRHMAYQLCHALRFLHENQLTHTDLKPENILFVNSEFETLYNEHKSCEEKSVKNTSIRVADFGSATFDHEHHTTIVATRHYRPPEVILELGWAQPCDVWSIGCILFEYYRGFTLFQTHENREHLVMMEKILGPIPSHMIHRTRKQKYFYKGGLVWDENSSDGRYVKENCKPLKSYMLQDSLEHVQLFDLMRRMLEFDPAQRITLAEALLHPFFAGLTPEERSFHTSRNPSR
Chain of Dual serine/threonine and tyrosine protein kinase (Homo sapiens) (Q6XUX3 whole entry): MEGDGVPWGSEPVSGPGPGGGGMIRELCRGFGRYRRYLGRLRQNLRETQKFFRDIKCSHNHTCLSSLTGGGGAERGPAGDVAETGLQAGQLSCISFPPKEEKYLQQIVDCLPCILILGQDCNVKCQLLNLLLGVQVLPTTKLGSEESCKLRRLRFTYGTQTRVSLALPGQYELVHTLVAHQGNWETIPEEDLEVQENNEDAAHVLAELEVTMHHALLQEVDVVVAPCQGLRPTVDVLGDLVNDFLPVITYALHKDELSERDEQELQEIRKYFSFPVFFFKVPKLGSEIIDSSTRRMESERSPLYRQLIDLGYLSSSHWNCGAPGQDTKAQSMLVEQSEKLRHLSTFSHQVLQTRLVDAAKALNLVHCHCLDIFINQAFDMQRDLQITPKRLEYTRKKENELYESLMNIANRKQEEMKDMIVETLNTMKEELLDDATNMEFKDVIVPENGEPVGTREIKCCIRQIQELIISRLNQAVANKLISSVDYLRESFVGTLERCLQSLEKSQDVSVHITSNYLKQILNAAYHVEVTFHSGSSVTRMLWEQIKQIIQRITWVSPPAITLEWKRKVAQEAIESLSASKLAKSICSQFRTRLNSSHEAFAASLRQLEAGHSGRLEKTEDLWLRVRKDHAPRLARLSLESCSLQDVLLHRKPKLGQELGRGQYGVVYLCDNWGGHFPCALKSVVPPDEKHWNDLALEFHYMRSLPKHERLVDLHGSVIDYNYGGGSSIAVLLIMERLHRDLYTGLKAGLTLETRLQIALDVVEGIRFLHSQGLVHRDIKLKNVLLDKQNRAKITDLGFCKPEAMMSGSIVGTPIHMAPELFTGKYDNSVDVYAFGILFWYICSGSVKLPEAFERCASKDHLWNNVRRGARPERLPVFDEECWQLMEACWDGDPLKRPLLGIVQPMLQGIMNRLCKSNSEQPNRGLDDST
Chain of Bone morphogenetic protein receptor type-2 (Homo sapiens) (Q13873 whole entry): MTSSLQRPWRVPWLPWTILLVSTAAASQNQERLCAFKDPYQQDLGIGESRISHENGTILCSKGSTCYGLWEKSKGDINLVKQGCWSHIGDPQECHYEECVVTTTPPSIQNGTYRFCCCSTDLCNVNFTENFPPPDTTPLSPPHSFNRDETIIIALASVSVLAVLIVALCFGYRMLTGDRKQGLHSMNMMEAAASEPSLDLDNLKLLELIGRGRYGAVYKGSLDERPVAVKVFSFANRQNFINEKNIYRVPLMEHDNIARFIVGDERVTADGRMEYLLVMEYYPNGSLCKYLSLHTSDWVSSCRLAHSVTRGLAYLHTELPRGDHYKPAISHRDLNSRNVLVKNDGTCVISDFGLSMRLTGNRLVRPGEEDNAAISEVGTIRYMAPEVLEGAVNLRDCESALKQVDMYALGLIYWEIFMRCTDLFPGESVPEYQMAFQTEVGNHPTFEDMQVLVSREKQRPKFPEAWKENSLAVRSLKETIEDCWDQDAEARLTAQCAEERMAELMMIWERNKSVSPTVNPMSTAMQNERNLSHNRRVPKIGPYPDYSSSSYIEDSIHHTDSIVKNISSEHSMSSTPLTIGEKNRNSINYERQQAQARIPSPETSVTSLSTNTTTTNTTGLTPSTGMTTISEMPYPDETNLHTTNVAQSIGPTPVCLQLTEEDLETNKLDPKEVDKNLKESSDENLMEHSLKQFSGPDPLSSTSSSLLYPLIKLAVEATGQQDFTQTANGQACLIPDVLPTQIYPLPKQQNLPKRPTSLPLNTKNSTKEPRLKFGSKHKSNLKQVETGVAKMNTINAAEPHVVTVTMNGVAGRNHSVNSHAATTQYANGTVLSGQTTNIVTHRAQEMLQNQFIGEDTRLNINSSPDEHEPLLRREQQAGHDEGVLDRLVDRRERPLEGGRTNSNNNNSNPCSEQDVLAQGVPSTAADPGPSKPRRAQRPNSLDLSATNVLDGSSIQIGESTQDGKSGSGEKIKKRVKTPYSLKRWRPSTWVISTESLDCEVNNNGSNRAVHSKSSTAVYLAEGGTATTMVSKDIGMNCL
Chain of Citron Rho-interacting kinase (Homo sapiens) (O14578 whole entry): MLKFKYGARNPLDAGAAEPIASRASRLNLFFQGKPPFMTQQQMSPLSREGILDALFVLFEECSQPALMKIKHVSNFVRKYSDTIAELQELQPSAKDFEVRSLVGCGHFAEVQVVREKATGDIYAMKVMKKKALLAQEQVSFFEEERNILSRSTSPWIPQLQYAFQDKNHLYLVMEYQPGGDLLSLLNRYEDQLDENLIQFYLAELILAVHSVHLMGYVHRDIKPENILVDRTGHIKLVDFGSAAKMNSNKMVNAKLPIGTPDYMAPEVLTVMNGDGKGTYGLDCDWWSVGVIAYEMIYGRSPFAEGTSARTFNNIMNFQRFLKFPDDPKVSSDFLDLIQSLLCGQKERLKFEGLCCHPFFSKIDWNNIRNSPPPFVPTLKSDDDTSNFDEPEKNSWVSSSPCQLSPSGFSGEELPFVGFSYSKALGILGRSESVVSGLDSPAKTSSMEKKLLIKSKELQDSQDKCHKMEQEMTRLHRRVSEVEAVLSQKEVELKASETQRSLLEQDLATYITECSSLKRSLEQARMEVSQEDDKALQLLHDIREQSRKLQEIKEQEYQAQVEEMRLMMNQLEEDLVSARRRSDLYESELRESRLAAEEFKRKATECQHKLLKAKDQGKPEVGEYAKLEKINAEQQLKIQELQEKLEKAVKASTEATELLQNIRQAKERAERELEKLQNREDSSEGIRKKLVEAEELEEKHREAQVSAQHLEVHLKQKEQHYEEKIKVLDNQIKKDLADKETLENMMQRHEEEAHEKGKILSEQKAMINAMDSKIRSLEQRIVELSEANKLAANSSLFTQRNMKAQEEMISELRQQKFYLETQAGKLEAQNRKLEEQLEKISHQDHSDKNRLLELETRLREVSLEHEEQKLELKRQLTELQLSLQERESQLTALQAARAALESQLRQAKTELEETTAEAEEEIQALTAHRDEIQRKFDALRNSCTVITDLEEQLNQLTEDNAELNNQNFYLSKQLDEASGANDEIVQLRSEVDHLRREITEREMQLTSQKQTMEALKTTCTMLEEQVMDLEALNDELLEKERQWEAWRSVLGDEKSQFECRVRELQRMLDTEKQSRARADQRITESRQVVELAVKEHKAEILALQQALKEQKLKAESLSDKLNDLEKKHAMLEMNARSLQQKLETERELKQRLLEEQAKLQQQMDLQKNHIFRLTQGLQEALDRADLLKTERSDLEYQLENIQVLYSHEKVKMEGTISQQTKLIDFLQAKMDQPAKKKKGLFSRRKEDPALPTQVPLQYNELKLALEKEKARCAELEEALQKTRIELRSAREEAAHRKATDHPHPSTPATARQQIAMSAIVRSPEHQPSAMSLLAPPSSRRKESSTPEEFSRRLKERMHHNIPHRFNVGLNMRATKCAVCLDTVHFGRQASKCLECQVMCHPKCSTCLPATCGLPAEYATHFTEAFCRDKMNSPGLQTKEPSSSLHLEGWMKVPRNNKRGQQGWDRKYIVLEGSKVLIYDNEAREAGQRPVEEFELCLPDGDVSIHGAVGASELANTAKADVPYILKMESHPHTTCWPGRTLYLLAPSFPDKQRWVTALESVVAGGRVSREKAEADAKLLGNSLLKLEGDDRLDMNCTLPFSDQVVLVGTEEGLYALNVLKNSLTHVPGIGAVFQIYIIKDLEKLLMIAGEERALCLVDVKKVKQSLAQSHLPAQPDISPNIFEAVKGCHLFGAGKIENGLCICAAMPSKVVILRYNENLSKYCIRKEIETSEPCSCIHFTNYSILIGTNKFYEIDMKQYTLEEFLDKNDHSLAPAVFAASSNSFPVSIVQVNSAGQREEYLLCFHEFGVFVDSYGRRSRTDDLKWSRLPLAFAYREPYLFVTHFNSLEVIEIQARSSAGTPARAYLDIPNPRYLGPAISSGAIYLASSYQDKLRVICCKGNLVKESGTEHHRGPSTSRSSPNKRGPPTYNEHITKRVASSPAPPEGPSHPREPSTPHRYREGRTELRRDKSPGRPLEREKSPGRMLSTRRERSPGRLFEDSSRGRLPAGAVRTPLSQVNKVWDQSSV
Chain of Mitogen-activated protein kinase kinase kinase 3 (Homo sapiens) (Q99759 whole entry): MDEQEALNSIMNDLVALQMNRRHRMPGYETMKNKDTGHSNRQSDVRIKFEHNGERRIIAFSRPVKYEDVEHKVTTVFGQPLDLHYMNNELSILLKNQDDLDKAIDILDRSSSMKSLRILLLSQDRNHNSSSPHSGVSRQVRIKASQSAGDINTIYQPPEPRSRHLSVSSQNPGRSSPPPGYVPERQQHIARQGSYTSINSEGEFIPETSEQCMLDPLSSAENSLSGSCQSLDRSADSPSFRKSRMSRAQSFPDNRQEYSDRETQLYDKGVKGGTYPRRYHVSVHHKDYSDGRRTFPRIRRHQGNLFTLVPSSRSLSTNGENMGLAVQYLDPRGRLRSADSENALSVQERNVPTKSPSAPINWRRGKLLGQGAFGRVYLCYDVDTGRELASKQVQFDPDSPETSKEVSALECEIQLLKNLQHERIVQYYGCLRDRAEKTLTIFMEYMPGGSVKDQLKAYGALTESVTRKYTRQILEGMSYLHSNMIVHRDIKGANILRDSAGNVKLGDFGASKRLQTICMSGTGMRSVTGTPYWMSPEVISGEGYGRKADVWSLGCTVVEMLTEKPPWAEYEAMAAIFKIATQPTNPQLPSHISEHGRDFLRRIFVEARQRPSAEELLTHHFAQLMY

SMILES | residual activity [1] | residual activity [2] | residual activity [3] | residual activity [4] | residual activity [5] | residual activity [6] | residual activity [7] | residual activity [8] | residual activity [9] | residual activity [10] | residual activity [11] | residual activity [12] | residual activity [13] | residual activity [14] | residual activity [15] | residual activity [16] | residual activity [17] | residual activity [18] | residual activity [19] | residual activity [20] | also measured
O=C(NC[C@@H]1[C@H]2CN(C(=O)OCc3cc(C(F)(F)F)cc(C(F)(F)F)c3)C[C@@H]12)c1ccc2[nH]nnc2c1 [BI 2545] | 89% | 78% | 100% | 100% | 90% | 100% | 91% | 100% | 86% | 78% | 98% | 100% | 100% | 100% | 88% | 90% | 100% | 89% | 83% | 100% | residual activity [21]: 88%; residual activity [22]: 89%; residual activity [23]: 94%; residual activity [24]: 98%; residual activity [25]: 89%; residual activity [26]: 100%; residual activity [27]: 100%; residual activity [28]: 100%; residual activity [29]: 100%; residual activity [30]: 89%; residual activity [31]: 82%; residual activity [32]: 100%; residual activity [33]: 100%; residual activity [34]: 85%; residual activity [35]: 100%; inhibition [36]: 17.9%; inhibition [37]: 13.3%; inhibition [38]: 7.11%; inhibition [39]: 44.9%
Cc1nccc(COC(=O)N2C[C@@H]3[C@@H](CNC(=O)c4ccc5[nH]nnc5c4)[C@@H]3C2)n1 [BI 3017] | 100% | 100% | 91% | 98% | 81% | 100% | 100% | 100% | 80% | 90% | 97% | 94% | 100% | 100% | 100% | 82% | 99% | 76% | 100% | 93% | residual activity [21]: 96%; residual activity [22]: 89%; residual activity [23]: 91%; residual activity [24]: 84%; residual activity [25]: 97%; residual activity [26]: 100%; residual activity [27]: 100%; residual activity [28]: 41%; residual activity [29]: 92%; residual activity [30]: 86%; residual activity [31]: 69%; residual activity [32]: 100%; residual activity [33]: 96%; residual activity [34]: 94%; residual activity [35]: 29%; inhibition [36]: 4.4%; inhibition [37]: 12.4%; inhibition [38]: -5.6%; inhibition [39]: -2.9%
